Like-named read-outs stand apart in the source and are kept apart here. *1 amine or outer side, *2 acyl side, *3 side chain or, on linkers, in order; H or OH if unused. Where a SMILES comes first, the peptide text is derived from it. Bridges are numbered along the chain shown (N, C = ends). [ ]: non-standard residue; d: D form. TATA = O=C(CC[*:1])N1CN(C(=O)CC[*:2])CN(C(=O)CC[*:3])C1; hArg = N=C(N)NCCCC[C@H](N)C(=O)O; βAla = NCCC(=O)O; Sar = CNCC(=O)O
Target: T1, human Nectin-4 (Homo sapiens, UniProt Q96NY8)
T1 sequence (Q96NY8 32-510): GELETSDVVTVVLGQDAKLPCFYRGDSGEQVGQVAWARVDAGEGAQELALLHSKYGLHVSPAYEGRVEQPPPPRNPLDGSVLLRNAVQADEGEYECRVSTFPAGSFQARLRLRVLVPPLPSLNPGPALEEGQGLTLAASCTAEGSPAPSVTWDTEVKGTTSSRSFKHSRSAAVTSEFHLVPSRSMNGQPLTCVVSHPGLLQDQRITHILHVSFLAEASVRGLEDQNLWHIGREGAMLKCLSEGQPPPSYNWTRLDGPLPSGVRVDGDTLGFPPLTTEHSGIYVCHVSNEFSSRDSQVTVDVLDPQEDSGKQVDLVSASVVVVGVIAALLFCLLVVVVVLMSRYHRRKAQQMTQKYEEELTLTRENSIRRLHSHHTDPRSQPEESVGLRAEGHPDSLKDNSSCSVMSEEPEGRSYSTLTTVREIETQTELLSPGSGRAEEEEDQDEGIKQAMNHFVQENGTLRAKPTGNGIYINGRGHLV
Test: Nectin-4 competition binding assay (fluorescence polarisation)
Procedure: Peptides were diluted to an appropriate concentration in assay buffer as described in the direct binding assay with a maximum of 5% DMSO, then serially diluted 1 in 2. Five μL of diluted peptide was added to the plate followed by 10 μL of human Nectin-4, then 10 μL fluorescent peptide added. Measurements were conducted as for the direct binding assay, however the gain was determined prior to the first measurement. Data analysis was in Systat Sigmaplot version 12.0 where the mP values were fit to a user defined cubic equation to generate a Ki value: • f=ymin+(ymax−ymin)/Lig*((Lig*((2*((Klig+Kcomp+Lig+Comp-Prot*c)^2-3*(Kcomp*(Lig-Prot*c)+Klig*(Comp-Prot*c)+Klig*Kcomp))^0.5*COS(ARCCOS((−2*(Klig+Kcomp+Lig+Comp-Prot*c)^3+9*(Klig+Kcomp+Lig+Comp-Prot*c)*(Kcomp*(Lig-Prot*c)+Klig*(Comp-Prot*c)+Klig*Kcomp)−27*(−1*Klig*Kcomp*Prot*c)/(2*((((Klig+Kcomp+Lig+Comp-Prot*c)^2−3*(Kcomp*(Lig-Prot*c)+Klig*(Comp-Prot*c)+Klig*Kcomp))^3)^0.5)))/3))−(Klig+Kcomp+Lig+Comp-Prot*c)))/((3*Klig)+((2*((Klig+Kcomp+Lig+Comp-Prot*c)^2−3*(Kcomp*(Lig-Prot*c)+Klig*(Comp-Prot*c)+Klig*Kcomp))^0.5*COS (ARCCOS ((−2*(Klig+Kcomp+Lig+Comp-Prot*c)^3+9*(Klig+Kcomp+Lig+Comp-Prot*c)*(Kcomp*(Lig-Prot*c)+Klig*(Comp-Prot*c)+Klig*Kcomp)-27*(−1*Klig*Kcomp*Prot*c))/(2*((((Klig+Kcomp+Lig+Comp-Prot*c)^2-3*(Kcomp*(Lig-Prot*c)+Klig*(Comp-Prot+c)+Klig*Kcomp))^3)^0.5))/3)−(Klig+Kcomp+Lig+Comp-Prot*c)))).
“Lig”, “KLig” and “Prot” were all defined values relating to: fluorescent peptide concentration, the Kd of the fluorescent peptide and Nectin concentration respectively.

[1] = competition with fluorescent peptide SEQ ID NO: 217, read-out: Ki

| Ki [1] [nM] | Structure (SMILES) | Ki [nM] |
| --- | --- | --- |
| 410 | CC[C@H](C)[C@@H]1NC(=O)[C@@H]2CCCN2C(=O)[C@H](Cc2c[nH]c3ccccc23)NC(=O)[C@H](CO)NC(=O)[C@H](Cc2c[nH]c3ccccc23)NC(=O)[C@H](CC(=O)O)NC(=O)[C@H](CO)NC(=O)[C@H](CCSC)NC(=O)[C@@H]2CSCCC(=O)N3CN(CN(C3)C(=O)CCSC[C@H](NC(=O)[C@H](C)N)C(=O)N3CCC[C@H]3C(=O)N[C@@H](Cc3ccccc3)C(=O)NCC(=O)N2)C(=O)CCSC[C@@H](C(=O)N[C@@H](CO)C(=O)N[C@H](C(=O)N[C@@H](CC(=O)O)C(N)=O)[C@@H](C)O)NC(=O)[C@H](Cc2c[nH]c3ccccc23)NC1=O [BCY3399, A-(SEQ ID NO: 57)-STD] (H-ACPFGCMSDWSWPIWCSTD-NH2; linker 2-6-16 via TATA; N-terminus and C-terminus assumed) |  |
| 154 | CC[C@H](C)[C@@H]1NC(=O)[C@H](CCCNC(=N)N)NC(=O)[C@@H]2CCCN2C(=O)[C@@H]2CSCCC(=O)N3CN(CN(C3)C(=O)CCSC[C@@H](C(=O)N3CCC[C@H]3C(=O)N[C@@H](CCC(N)=O)C(=O)N[C@@H](C)C(N)=O)NC1=O)C(=O)CCSC[C@H](NC(=O)[C@H](C)N)C(=O)N[C@@H](Cc1c[nH]c3ccccc13)C(=O)N1CCC[C@H]1C(=O)N[C@@H](CC(C)C)C(=O)N[C@@H](CC(=O)O)C(=O)N[C@@H](CC(=O)O)C(=O)N[C@@H](Cc1ccc(O)cc1)C(=O)N[C@@H](Cc1c[nH]c3ccccc13)C(=O)N2 [BCY3401, A-(SEQ ID NO: 58)-PQA] (H-ACWPLDDYWCPRICPQA-NH2; linker 2-10-14 via TATA; N-terminus and C-terminus assumed) |  |
| 34.5 | CC[C@H](C)[C@@H]1NC(=O)[C@@H]2CCCN2C(=O)[C@H](Cc2ccccc2)NC(=O)[C@H](CO)NC(=O)[C@H](Cc2c[nH]c3ccccc23)NC(=O)[C@H](CC(N)=O)NC(=O)[C@H](CCCCN)NC(=O)[C@H](CCSC)NC(=O)[C@@H]2CSCCC(=O)N3CN(CN(C3)C(=O)CCSC[C@H](NC(C)=O)C(=O)N3CCC[C@H]3C(=O)N[C@@H](Cc3ccccc3)C(=O)NCC(=O)N2)C(=O)CCSC[C@@H](C(N)=O)NC(=O)[C@H](Cc2c[nH]c3ccccc23)NC1=O [BCY7589, Ac-(SEQ ID NO: 84)] (Ac-CPFGCMKNWSFPIWC-NH2; linker 1-5-15 via TATA; C-terminus assumed) |  |

More lines, now with the values behind:

| Structure (SMILES) | Ki [1] [nM] | Ki [nM] |
| --- | --- | --- |
| CC[C@H](C)[C@@H]1NC(=O)[C@@H]2CCCN2C(=O)[C@H](Cc2c[nH]c3ccccc23)NC(=O)[C@H](CO)NC(=O)[C@H](Cc2c[nH]c3ccccc23)NC(=O)[C@H](CC(=O)O)NC(=O)[C@H](CCC(=O)O)NC(=O)[C@H](CCC(N)=O)NC(=O)[C@@H]2CSCCC(=O)N3CN(CN(C3)C(=O)CCSC[C@H](NC(=O)[C@H](C)N)C(=O)N3CCC[C@H]3C(=O)N[C@@H](Cc3ccccc3)C(=O)NCC(=O)N2)C(=O)CCSC[C@@H](C(=O)N[C@@H](CC(C)C)C(=O)N[C@@H](CO)C(=O)N[C@@H](CCC(=O)O)C(N)=O)NC(=O)[C@H](Cc2c[nH]c3ccccc23)NC1=O [BCY3398, A-(SEQ ID NO: 56)-LSE] (H-ACPFGCQEDWSWPIWCLSE-NH2; linker 2-6-16 via TATA; N-terminus and C-terminus assumed) | 164 |  |
| CC[C@H](C)[C@@H]1NC(=O)[C@@H]2CCCN2C(=O)[C@H](Cc2c[nH]c3ccccc23)NC(=O)[C@H](CO)NC(=O)[C@H](Cc2c[nH]c3ccccc23)NC(=O)[C@H](CC(N)=O)NC(=O)[C@H](CCCCN)NC(=O)[C@H](CCSC)NC(=O)[C@@H]2CSCCC(=O)N3CN(CN(C3)C(=O)CCSC[C@H](NC(=O)[C@H](C)N)C(=O)N3CCC[C@H]3C(=O)N[C@@H](Cc3ccccc3)C(=O)NCC(=O)N2)C(=O)CCSC[C@@H](C(=O)N[C@H](C(=O)N[C@@H](CC(N)=O)C(=O)N[C@@H](C)C(N)=O)[C@@H](C)O)NC(=O)[C@H](Cc2c[nH]c3ccccc23)NC1=O [BCY7348, A-(SEQ ID NO: 1)-TNA] | 20.6 |  |
| CC[C@H](C)[C@@H]1NC(=O)[C@@H]2CCCN2C(=O)[C@H](Cc2c[nH]c3ccccc23)NC(=O)[C@H](CO)NC(=O)[C@H](Cc2c[nH]c3ccccc23)NC(=O)[C@H](CC(N)=O)NC(=O)[C@H](CCCCN)NC(=O)[C@H](CCSC)NC(=O)[C@@H]2CSCCC(=O)N3CN(CN(C3)C(=O)CCSC[C@H](NC(=O)[C@H](C)N)C(=O)N3CCC[C@H]3C(=O)N[C@@H](Cc3ccccc3)C(=O)N[C@@H](C)C(=O)N2)C(=O)CCSC[C@@H](C(=O)N[C@H](C(=O)N[C@@H](CC(N)=O)C(=O)N[C@@H](CCCCN)C(N)=O)[C@@H](C)O)NC(=O)[C@H](Cc2c[nH]c3ccccc23)NC1=O [BCY7354, A-(SEQ ID NO: 6)-TNK] |  | 884 |
| CC[C@H](C)[C@@H]1NC(=O)[C@@H]2CCCN2C(=O)[C@H](Cc2c[nH]c3ccccc23)NC(=O)[C@H](C)NC(=O)[C@H](Cc2c[nH]c3ccccc23)NC(=O)[C@H](CC(N)=O)NC(=O)[C@H](CCCCN)NC(=O)[C@H](CCSC)NC(=O)[C@@H]2CSCCC(=O)N3CN(CN(C3)C(=O)CCSC[C@H](NC(=O)[C@H](C)N)C(=O)N3CCC[C@H]3C(=O)N[C@@H](Cc3ccccc3)C(=O)NCC(=O)N2)C(=O)CCSC[C@@H](C(=O)N[C@H](C(=O)N[C@@H](CC(N)=O)C(=O)N[C@@H](CCCCN)C(N)=O)[C@@H](C)O)NC(=O)[C@H](Cc2c[nH]c3ccccc23)NC1=O [BCY7424, A-(SEQ ID NO: 30)-TNK] (H-ACPFGCMKNWAWPIWCTNK-NH2; linker 2-6-16 via TATA; N-terminus and C-terminus assumed) | 562 |  |
| CC[C@H](C)[C@@H]1NC(=O)[C@@H]2CCCN2C(=O)[C@H](CC(=O)O)NC(=O)[C@H](CO)NC(=O)[C@H](Cc2c[nH]c3ccccc23)NC(=O)[C@H](CC(N)=O)NC(=O)[C@H](CCCCN)NC(=O)[C@H](CCSC)NC(=O)[C@@H]2CSCCC(=O)N3CN(CN(C3)C(=O)CCSC[C@H](NC(C)=O)C(=O)N3CCC[C@H]3C(=O)N[C@@H](Cc3ccccc3)C(=O)NCC(=O)N2)C(=O)CCSC[C@@H](C(N)=O)NC(=O)[C@H](Cc2c[nH]c3ccccc23)NC1=O [BCY7540, Ac-(SEQ ID NO: 8)] (Ac-CPFGCMKNWSDPIWC-NH2; linker 1-5-15 via TATA; C-terminus assumed) | 357 |  |
| CC[C@H](C)[C@@H]1NC(=O)[C@@H]2CCCN2C(=O)[C@H](Cc2c[nH]c3ccccc23)NC(=O)[C@H](CO)NC(=O)[C@H](Cc2c[nH]c3ccccc23)NC(=O)[C@H](CC(N)=O)NC(=O)[C@H](CCCCNC(=N)N)NC(=O)[C@H](CCSC)NC(=O)[C@@H]2CSCCC(=O)N3CN(CN(C3)C(=O)CCSC[C@H](NC(=O)CN(C)C(=O)CN(C)C(=O)CN(C)C(=O)CN(C)C(=O)CN(C)C(=O)CCNC(C)=O)C(=O)N3CCC[C@H]3C(=O)N[C@@H](Cc3ccccc3)C(=O)N[C@H](CC(=O)O)C(=O)N2)C(=O)CCSC[C@@H](C(N)=O)NC(=O)[C@H](Cc2c[nH]c3ccccc23)NC1=O [BCY7558, Ac-[B-Ala][Sar5]-(SEQ ID NO: 76)] (Ac-[βAla][Sar][Sar][Sar][Sar][Sar]CPF[dD]CM[hArg]NWSWPIWC-NH2; linker 7-11-21 via TATA) | 21.9 |  |
| CC[C@H](C)[C@@H]1NC(=O)[C@@H]2CCCN2C(=O)[C@H](Cc2ccc(O)cc2)NC(=O)[C@H](CO)NC(=O)[C@H](Cc2c[nH]c3ccccc23)NC(=O)[C@H](CC(N)=O)NC(=O)[C@H](CCCCN)NC(=O)[C@H](CCSC)NC(=O)[C@@H]2CSCCC(=O)N3CN(CN(C3)C(=O)CCSC[C@H](NC(C)=O)C(=O)N3CCC[C@H]3C(=O)N[C@@H](Cc3ccccc3)C(=O)NCC(=O)N2)C(=O)CCSC[C@@H](C(N)=O)NC(=O)[C@H](Cc2c[nH]c3ccccc23)NC1=O [BCY7590, Ac-(SEQ ID NO: 85)] (Ac-CPFGCMKNWSYPIWC-NH2; linker 1-5-15 via TATA; C-terminus assumed) | 38.5 |  |

From patent US12459974B2, “Bicyclic peptide ligands specific for Nectin-4” (priority 2018, dated 2025)
